# According to patent US10709709B2, “Substituted carbonucleoside derivatives useful as anticancer agents” (Pfizer Inc., priority 2016, dated 2020):
# Target: PRMT5/MEP50 protein complex (Homo sapiens (Human), UniProt O14744)
# Assay: PRMT5 biochemical assay (3H-SAM methylation of H4(1-21) peptide, filter plate scintillation)
# Details: 10 nM PRMT5/MEP50 complex, 200 nM H4(1-21) peptide, 1 uM SAM, 25 minute incubation at room temperature
# Outline: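 Human PRMT5/MEP50 complex (10 nM) methylating H4(1-21) peptide (200 nM) with 3H/unlabelled SAM (1 uM final) in pH 8.5 Tris buffer, 25 min at room temperature. Stopped with TCA, 3H-peptide captured on filter plates and scintillation-counted. IC50 from 4-parameter fit.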
# PRMT5/MEP50 protein complex, sequence (O14744 other isoform, or with tags, fused parts or gaps): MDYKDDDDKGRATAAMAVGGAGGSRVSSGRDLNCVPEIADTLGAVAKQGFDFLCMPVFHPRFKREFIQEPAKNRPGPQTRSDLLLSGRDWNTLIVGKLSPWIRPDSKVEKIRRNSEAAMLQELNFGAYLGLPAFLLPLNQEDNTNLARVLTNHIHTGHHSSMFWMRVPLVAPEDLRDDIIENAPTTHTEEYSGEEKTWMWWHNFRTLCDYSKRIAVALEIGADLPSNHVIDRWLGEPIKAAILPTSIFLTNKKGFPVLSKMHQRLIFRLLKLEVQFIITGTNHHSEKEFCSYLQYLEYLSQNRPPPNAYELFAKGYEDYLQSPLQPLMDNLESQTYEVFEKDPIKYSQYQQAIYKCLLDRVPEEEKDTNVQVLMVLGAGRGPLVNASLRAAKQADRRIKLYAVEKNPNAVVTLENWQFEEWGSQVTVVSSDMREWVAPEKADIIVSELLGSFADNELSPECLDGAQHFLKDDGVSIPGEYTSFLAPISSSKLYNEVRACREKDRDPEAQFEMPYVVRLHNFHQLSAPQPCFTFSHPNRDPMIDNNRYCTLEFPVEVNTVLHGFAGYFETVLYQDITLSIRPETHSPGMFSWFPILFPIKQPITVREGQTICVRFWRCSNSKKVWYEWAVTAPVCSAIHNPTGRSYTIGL
# PRMT5/MEP50 protein complex, sequence (Q9BQA1 whole entry partner): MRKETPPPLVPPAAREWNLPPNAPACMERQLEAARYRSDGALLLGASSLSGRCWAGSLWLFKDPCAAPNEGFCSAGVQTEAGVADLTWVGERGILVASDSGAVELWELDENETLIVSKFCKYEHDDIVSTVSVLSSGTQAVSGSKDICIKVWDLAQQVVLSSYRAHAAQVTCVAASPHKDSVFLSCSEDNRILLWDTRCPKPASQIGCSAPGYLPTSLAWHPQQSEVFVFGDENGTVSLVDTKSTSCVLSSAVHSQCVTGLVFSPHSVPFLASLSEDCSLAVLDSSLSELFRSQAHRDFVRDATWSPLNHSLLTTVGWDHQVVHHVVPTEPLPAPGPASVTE
row,SMILES,IC50
1,"Cc1ncnc2c1ccn2[C@@H]1C[C@H](Oc2cccc3c2CN[C@H](C)CO3)[C@@H](O)[C@H]1O [Example 208, (1S,2S,3S,5R)-3-(((R)-3-methyl-2,3,4,5-tetrahydrobenzo[f][1,4]oxazepin-6-yl)oxy)-5-(4-methyl-7H-pyrrolo[2,3-d]pyrimidin-7-yl)cyclopentane-1,2-diol]",8 nM
2,"Cc1ncnc2c1ccn2[C@@H]1C[C@H](Oc2cccc3c2CCN(C)C3)[C@@H](O)[C@H]1O [Example 81, (1S,2S,3R,5S)-3-(4-methyl-7H-pyrrolo[2,3-d]pyrimidin-7-yl)-5-[(2-methyl-1,2,3,4-tetrahydroisoquinolin-5-yl)oxy]cyclopentane-1,2-diol]",1670 nM
3,"Cc1ncnc2c1ccn2[C@@H]1C[C@H](Oc2ccc(F)cc2C(N)=O)[C@@H](O)[C@H]1O [Example 70, 2-(((1S,2S,3S,4R)-2,3-dihydroxy-4-(4-methyl-7H-pyrrolo[2,3-d]pyrimidin-7-yl)cyclopentyl)oxy)-5-fluorobenzamide]",13600 nM
4,"Cc1ncnc2c1ccn2[C@@H]1C[C@H](Oc2ccc(F)cc2[C@@H](C)N)[C@@H](O)[C@H]1O [Example 137, (1S,2S,3S,5R)-3-(2-((R)-1-aminoethyl)-4-fluorophenoxy)-5-(4-methyl-7H-pyrrolo[2,3-d]pyrimidin-7-yl)cyclopentane-1,2-diol]",123 nM
5,"Cc1ncnc2c1ccn2[C@@H]1C[C@H](Oc2cccc3c2CNC(C)C3)[C@@H](O)[C@H]1O (single isomer, unassigned) [Example 185]",6 nM
6,"N#Cc1cccc2c(N[C@@H]3C[C@H](C(O)c4ccc(F)c(F)c4)[C@@H](O)[C@H]3O)ncnc12 (single isomer, unassigned) [Example 29, 4-({(1R;2S;3R;4R)-4-[(3;4-difluorophenyl)(hydroxy)methyl]-2;3-dihydroxycyclopentyl}amino)quinazoline-8-carbonitrile]",> 200000 nM
7,"Cc1ncnc2c1ccn2[C@@H]1C[C@H](Oc2nc(OC(C)C)c(F)c3c2CNCC3)[C@@H](O)[C@H]1O [Example 193, (1S,2S,3S,5R)-3-((4-fluoro-3-isopropoxy-5,6,7,8-tetrahydro-2,7-naphthyridin-1-yl)oxy)-5-(4-methyl-7H-pyrrolo[2,3-d]pyrimidin-7-yl)cyclopentane-1,2-diol]",180 nM
8,"N#Cc1cccc2c(N[C@@H]3C[C@H](C(O)c4ccc(F)c(F)c4)[C@@H](O)[C@H]3O)ncnc12 (single isomer, unassigned) [Example 30, 4-({(1R;2S;3R;4R)-4-[(3;4-difluorophenyl)(hydroxy)methyl]-2;3-dihydroxycyclopentyl}amino)quinazoline-8-carbonitrile]",> 200000 nM
9,"CN(c1ncnc(N)n1)[C@@H]1C[C@H]([C@@H](O)c2ccc(F)c(F)c2)[C@@H](O)[C@H]1O [Example 38, (1R,2S,3R,5R)-3-[(4-amino-1,3,5-triazin-2-yl)(methyl)amino]-5-[(R)-(3,4-difluorophenyl)(hydroxy)methyl]cyclopentane-1,2-diol]",15700 nM
10,"Cc1ncnc2c1ccn2[C@@H]1C[C@H]([C@@H](C)O)[C@@H](O)[C@H]1O [Example 1, (1S,2R,3R,5R)-3-((R)-1-hydroxyethyl)-5-(4-methyl-7H-pyrrolo[2,3-d]pyrimidin-7-yl)cyclopentane-1,2-diol]",510 nM
11,"Cc1ncnc2c1ccn2[C@@H]1C[C@H](Oc2ccc(Cl)cc2C(O)CN)[C@@H](O)[C@H]1O (stereo partly drawn) [Example 149, (1S,2S,3S,5R)-3-(2-(2-amino-1-hydroxyethyl)-4-chlorophenoxy)-5-(4-methyl-7H-pyrrolo[2,3-d]pyrimidin-7-yl)cyclopentane-1,2-diol]",69 nM
12,"Cc1ncnc2c1ccn2[C@@H]1C[C@H](Oc2cc(C(F)F)c(F)c3c2CNCC3)[C@@H](O)[C@H]1O [Example 190, (1S,2S,3S,5R)-3-((6-(difluoromethyl)-5-fluoro-1,2,3,4-tetrahydroisoquinolin-8-yl)oxy)-5-(4-methyl-7H-pyrrolo[2,3-d]pyrimidin-7-yl)cyclopentane-1,2-diol]",1 nM
13,"Cc1ncnc2c1ccn2[C@@H]1C[C@H](Oc2c(F)cccc2F)[C@@H](O)[C@H]1O [Example 74, (1S,2S,3S,5R)-3-(2,6-difluorophenoxy)-5-(4-methyl-7H-pyrrolo[2,3-d]pyrimidin-7-yl)cyclopentane-1,2-diol]",63300 nM
14,"Cc1ncnc2c1ccn2[C@@H]1C[C@H](Oc2ncnc3c2CNCC3)[C@@H](O)[C@H]1O [Example 156, (1S,2S,3R,5S)-3-(4-methyl-7H-pyrrolo[2,3-d]pyrimidin-7-yl)-5-((5,6,7,8-tetrahydropyrido[4,3-d]pyrimidin-4-yl)oxy)cyclopentane-1,2-diol]",107 nM
15,"Cc1ncnc2c1ccn2[C@@H]1C[C@H]([C@@H](O)c2ccc(F)c(Cl)c2)[C@@H](O)[C@H]1O [Example 6, (1S,2R,3R,5R)-3-[(R)-(3-chloro-4-fluorophenyl) (hydroxy)methyl]-5-(4-methyl-7H-pyrrolo[2,3-d]pyrimidin-7-yl)cyclopentane-1,2-diol]",423 nM
16,"CN(c1cc(N)ncn1)[C@@H]1C[C@H]([C@@H](O)c2ccc(F)c(F)c2)[C@@H](O)[C@H]1O [Example 44, (1R,2S,3R,5R)-3-[(6-aminopyrimidin-4-yl)(methyl)amino]-5-[(R)-(3,4-difluorophenyl)(hydroxy)methyl]cyclopentane-1,2-diol]",17000 nM
17,"Cc1ncnc2c1ccn2[C@@H]1C[C@H](Oc2cccc3c2CCNC3)[C@@H](O)[C@H]1O [Example 80, (1S,2S,3R,5S)-3-(4-methyl-7H-pyrrolo[2,3-d]pyrimidin-7-yl)-5-((1,2,3,4-tetrahydroisoquinolin-5-yl)oxy)cyclopentane-1,2-diol]",130 nM
18,"Cc1ncnc2c1ccn2[C@@H]1C[C@H]([C@@H](O)c2ccc(Cl)cc2)[C@@H](O)[C@H]1O [Example 12, (1S,2R,3R,5R)-3-[(R)-(4-chlorophenyl) (hydroxy)methyl]-5-(4-methyl-7H-pyrrolo[2,3-d]pyrimidin-7-yl)cyclopentane-1,2-diol]",478 nM
19,"Cc1ncnc2c1ccn2[C@H]1C[C@@H](Oc2ccc(F)cc2C#N)[C@H](O)[C@@H]1O [Example 69, 2-(((1R,2R,3R,4S)-2,3-dihydroxy-4-(4-methyl-7H-pyrrolo[2,3-d]pyrimidin-7-yl)cyclopentyl)oxy)-5-fluorobenzonitrile]",> 200000 nM
20,"CN(c1cc(N)ncn1)[C@@H]1C[C@H]([C@H](O)c2ccc(F)c(F)c2)[C@@H](O)[C@H]1O [Example 43, (1R,2S,3R,5R)-3-[(6-aminopyrimidin-4-yl)(methyl)amino]-5-[(S)-(3,4-difluorophenyl) (hydroxy)methyl]cyclopentane-1,2-diol]",879 nM
21,"Cc1ncnc2c1ccn2[C@@H]1C[C@H](Oc2cccc3ccncc23)[C@@H](O)[C@H]1O [Example 172, (1S,2S,3S,5R)-3-(isoquinolin-8-yloxy)-5-(4-methyl-7H-pyrrolo[2,3-d]pyrimidin-7-yl)cyclopentane-1,2-diol]",1280 nM
22,"O[C@@H]1[C@H](O)[C@@H]([C@H](O)c2ccc(F)c(F)c2)C[C@H]1Nc1ncnc2[nH]ccc12 [Example 27, (1S,2R,3R,5R)-3-[(S)-(3,4-difluorophenyl)(hydroxy)methyl]-5-(7H-pyrrolo[2,3-d]pyrimidin-4-ylamino)cyclopentane-1,2-diol]",449 nM
23,"Cc1ncnc2c1ccn2[C@@H]1C[C@H](Oc2cc(-c3cnco3)cc3c2CNCC3)[C@@H](O)[C@H]1O [Example 170, (1S,2S,3R,5S)-3-(4-methyl-7H-pyrrolo[2,3-d]pyrimidin-7-yl)-5-((6-(oxazol-5-yl)-1,2,3,4-tetrahydroisoquinolin-8-yl)oxy)cyclopentane-1,2-diol]",1 nM
24,"Cc1ncnc2c1ccn2[C@@H]1C[C@H](C2(O)CC2)[C@@H](O)[C@H]1O [Example 17, (1S,2R,3S,5R)-3-(1-hydroxycyclopropyl)-5-(4-methyl-7H-pyrrolo[2,3-d]pyrimidin-7-yl)cyclopentane-1,2-diol]",2770 nM
25,"Cc1ncnc2c1ccn2[C@H]1C[C@@H](Oc2ccccc2C#N)[C@H](O)[C@@H]1O [Example 65, 2-(((1R,2R,3R,4S)-2,3-dihydroxy-4-(4-methyl-7H-pyrrolo[2,3-d]pyrimidin-7-yl)cyclopentyl)oxy)benzonitrile]",> 200000 nM
26,"Cc1cc(N(C)[C@@H]2C[C@H]([C@H](O)c3ccc(F)c(F)c3)[C@@H](O)[C@H]2O)ncn1 [Example 33, (1S,2R,3R,5R)-3-[(S)-(3,4-difluorophenyl)(hydroxy)methyl]-5-[methyl(6-methylpyrimidin-4-yl)amino] cyclopentane-1,2-diol]",3580 nM
27,"Cc1ncnc2c1ccn2[C@@H]1C[C@H]([C@@](C)(O)c2ccc(F)cc2)[C@@H](O)[C@H]1O [Example 20, (1S,2R,3S,5R)-3-[(1R)-1-(4-fluorophenyl)-1-hydroxyethyl]-5-(4-methyl-7H-pyrrolo[2,3-d]pyrimidin-7-yl)cyclopentane-1,2-diol]",17100 nM
28,Nc1ncnc2c1c(F)cn2[C@@H]1C[C@H](Oc2cccc3ccncc23)[C@@H](O)[C@H]1O [Example 162],42 nM
29,"CN1Cc2cccc(O[C@H]3C[C@@H](n4cc(F)c5c(N)ncnc54)[C@H](O)[C@@H]3O)c2C1 [Example 115, (1S,2S,3R,5S)-3-(4-amino-5-fluoro-7H-pyrrolo[2,3-d]pyrimidin-7-yl)-5-[(2-methyl-2,3-dihydro-1H-isoindol-4-yl)oxy]cyclopentane-1,2-diol]",147 nM
